PubChem BioAssay AID330 (DTP/NCI, 2004)
Values joined by “and” are separate entries in the source; they are usually repeats but may differ in a detail not shown here. Equal entries are not always repeated. Toxic doses and inconclusive results are not listed. Rule for the calls: active = survival T/C of 150% or more; inactive = T/C below 125% in these data. Peptide text beside a SMILES is read from it. * marks the point of attachment. Boc = CC(C)(C)OC(=O)*

Test system: P388 leukemia ip, CD2F1 mice, survival T/C
Assay: NCI In Vivo Anticancer Drug Screen. Data for tumor model P388 Leukemia (intraperitoneal) in CD2F1 (CDF1) mice
Details: endpoint: median survival time, higher = longer survival
Method in brief: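 Mice carrying the transplanted tumor received test compound or vehicle. Survival was recorded in each group, and the value is the treated-group measurement divided by that of the vehicle-treated control group.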

[1] = dose: 12.5 mg/kg/injection, schedule: Q01DX009 (ip), vehicle: Klucel (hydroxypropylcellulose) (HPC)
[2] = dose: 100.0 mg/kg/injection, schedule: Q01DX009 (ip), vehicle: Klucel (hydroxypropylcellulose) (HPC)
[3] = dose: 50.0 mg/kg/injection, schedule: Q01DX005 (ip), vehicle: Klucel (hydroxypropylcellulose) (HPC)
[4] = dose: 100.0 mg/kg/injection, schedule: Q01DX005 (ip), vehicle: Klucel (hydroxypropylcellulose) (HPC)
[5] = dose: 100.0 mg/kg/injection, schedule: Q04DX002 (ip), vehicle: Klucel (hydroxypropylcellulose) (HPC)
[6] = dose: 200.0 mg/kg/injection, schedule: Q04DX002 (ip), vehicle: Klucel (hydroxypropylcellulose) (HPC)
[7] = dose: 50.0 mg/kg/injection, schedule: Q01DX009 (ip), vehicle: Klucel (hydroxypropylcellulose) (HPC)
[8] = dose: 200.0 mg/kg/injection, schedule: Q01DX009 (ip), vehicle: Klucel (hydroxypropylcellulose) (HPC)
[9] = dose: 100.0 mg/kg/injection, schedule: Q04DX002 (ip), vehicle: saline with Tween-80
[10] = dose: 200.0 mg/kg/injection, schedule: Q04DX002 (ip), vehicle: saline with Tween-80
[11] = dose: 400.0 mg/kg/injection, schedule: Q04DX002 (ip), vehicle: saline with Tween-80
[12] = dose: 50.0 mg/kg/injection, schedule: Q01DX005 (ip), vehicle: saline
[13] = dose: 100.0 mg/kg/injection, schedule: Q01DX005 (ip), vehicle: saline
[14] = dose: 200.0 mg/kg/injection, schedule: Q01DX005 (ip), vehicle: saline

Measured: T/C

CCOC(=O)c1c(N)sc2c1CCCC2
inactive: dose: 50.0 mg/kg/injection, schedule: Q04DX003 (ip), vehicle: saline with Tween-80 101 % of control | dose: 100.0 mg/kg/injection, schedule: Q01DX001 (ip), vehicle: saline sonified 100 % of control | dose: 100.0 mg/kg/injection, schedule: Q04DX003 (ip), vehicle: saline with Tween-80 108 % of control | dose: 200.0 mg/kg/injection, schedule: Q01DX001 (ip), vehicle: saline sonified 100 % of control | dose: 200.0 mg/kg/injection, schedule: Q04DX003 (ip), vehicle: saline with Tween-80 105 % of control | dose: 400.0 mg/kg/injection, schedule: Q01DX001 (ip), vehicle: saline sonified 100 % of control | dose: 400.0 mg/kg/injection, schedule: Q04DX003 (ip), vehicle: saline with Tween-80 101 % of control

NC(=S)N/N=C/c1ccncn1
inactive: dose: 6.25 mg/kg/injection, schedule: Q01DX009 (ip), vehicle: Klucel (hydroxypropylcellulose) (HPC) 93 % of control | dose: 6.25 mg/kg/injection, schedule: Q04DX003 (ip), vehicle: Klucel (hydroxypropylcellulose) (HPC) 111 % of control | [1] 92 % of control | dose: 12.5 mg/kg/injection, schedule: Q04DX003 (ip), vehicle: Klucel (hydroxypropylcellulose) (HPC) 101 % of control | dose: 12.5 mg/kg/injection, schedule: Q04DX003 (ip), vehicle: saline with Tween-80 123 % of control | dose: 25.0 mg/kg/injection, schedule: Q01DX009 (ip), vehicle: Klucel (hydroxypropylcellulose) (HPC) 100 % of control | dose: 25.0 mg/kg/injection, schedule: Q04DX003 (ip), vehicle: Klucel (hydroxypropylcellulose) (HPC) 111 % of control | dose: 50.0 mg/kg/injection, schedule: Q04DX003 (ip), vehicle: Klucel (hydroxypropylcellulose) (HPC) 112 % of control

C[Si](C)(C)OSc1ccccc1[N+](=O)[O-]
inactive: [1] 121 % of control | dose: 50.0 mg/kg/injection, schedule: Q01DX009 (ip), vehicle: saline with Tween-80 120 % of control | [2] 122 % of control | dose: 100.0 mg/kg/injection, schedule: Q01DX009 (ip), vehicle: saline with Tween-80 114 % of control | dose: 200.0 mg/kg/injection, schedule: Q01DX009 (ip), vehicle: saline with Tween-80 115 % of control

O=[N+]([O-])c1ccccc1N/N=C\c1c(Cl)[nH]c2ccccc12
inactive: [3] 90 % of control | [4] 95 % of control | [5] 90 % of control | [6] 91 % of control | dose: 400.0 mg/kg/injection, schedule: Q04DX002 (ip), vehicle: Klucel (hydroxypropylcellulose) (HPC) 95 % of control

N#CC(Cl)CNC(=O)Oc1ccccc1 (configuration not stated)
inactive: [3] 97 % of control

CC(=O)Nc1ccc(OCCOC(=O)Nc2c(Cl)cccc2Cl)cc1
inactive: [7] 92 % of control | [8] 92 % of control

CCOC(=O)C(CCC(=O)O)NC(=O)C(CCSC)NC(=O)OC(C)(C)C (stereo not drawn) (Boc-Met-Glu-OEt; configuration not given here)
inactive: [3] 102 % of control | [4] 102 % of control | dose: 200.0 mg/kg/injection, schedule: Q01DX005 (ip), vehicle: Klucel (hydroxypropylcellulose) (HPC) 97 % of control

CCO/C=C1/N=C(c2cc(Cl)cc([N+](=O)[O-])c2)OC1=O
inactive: dose: 60.0 mg/kg/injection, schedule: Q01DX005 (ip), vehicle: saline with Tween-80 101 % of control | dose: 120.0 mg/kg/injection, schedule: Q01DX005 (ip), vehicle: saline with Tween-80 101 % of control | dose: 240.0 mg/kg/injection, schedule: Q01DX005 (ip), vehicle: saline with Tween-80 93 % of control

CCOC(=O)NC(=S)Nc1cn(C)cc1[N+](=O)[O-]
inactive: dose: 50.0 mg/kg/injection, schedule: Q01DX005 (ip), vehicle: saline with Tween-80 100 % of control | dose: 100.0 mg/kg/injection, schedule: Q01DX005 (ip), vehicle: saline with Tween-80 100 % of control | dose: 200.0 mg/kg/injection, schedule: Q01DX005 (ip), vehicle: saline with Tween-80 95 % of control

COc1ccc2c(c1OC)CN(C)[C@]13ON(c4ccccc4)[C@H](C[C@]21C)c1cc2c(cc13)OCO2
inactive: [9] 98 % of control | [10] 88 % of control | [11] 95 % of control

C=C1C(=O)OC2/C=C(\C)C(O)CCC(C)(O)CC(OC(=O)/C(C)=C/C)C12 (configuration not stated)
inactive: dose: 7.5 mg/kg/injection, schedule: Q01DX009 (ip), vehicle: saline with Tween-80 104 % of control | dose: 15.0 mg/kg/injection, schedule: Q01DX009 (ip), vehicle: saline with Tween-80 98 % of control | dose: 30.0 mg/kg/injection, schedule: Q01DX009 (ip), vehicle: saline with Tween-80 104 % of control | dose: 60.0 mg/kg/injection, schedule: Q01DX009 (ip), vehicle: saline with Tween-80 108 % of control

O=c1oc2ccccc2cc1Cc1cc2ccccc2oc1=O
inactive: [7] 103 % of control | [2] 97 % of control

CCOC1=Cc2c(oc3c(C(C)(C)C)cc(OCC)cc23)OC(C(C)(C)C)=C1
inactive: dose: 3.12 mg/kg/injection, schedule: Q01DX009 (ip), vehicle: saline with Tween-80 103 % of control | dose: 6.25 mg/kg/injection, schedule: Q01DX009 (ip), vehicle: saline with Tween-80 92 % of control | dose: 12.5 mg/kg/injection, schedule: Q01DX009 (ip), vehicle: saline with Tween-80 100 % of control | dose: 25.0 mg/kg/injection, schedule: Q01DX009 (ip), vehicle: saline with Tween-80 100 % of control

O=C1CC2(C(=O)N1CN1CCOCC1)c1ccccc1-c1ccccc12
inactive: dose: 50.0 mg/kg/injection, schedule: Q04DX002 (ip), vehicle: Klucel (hydroxypropylcellulose) (HPC) 109 % of control | [5] 99 % of control and 108 % of control | [6] 111 % of control

Cn1c(N)c(C(=O)/C=C/c2ccccc2)c(=O)n(CCN2CCOCC2)c1=O
inactive: [12] 100 % of control | [13] 94 % of control | [14] 89 % of control

C=CS(=O)(=O)c1cccc(N2C(=O)c3cc(S(=O)(=O)O)cc4c(N)c(S(=O)(=O)O)cc(c34)C2=O)c1
inactive: [12] 107 % of control | [13] 107 % of control | [14] 100 % of control

COC(=O)c1cc(C#N)n2ccc3ccccc3c12
inactive: [7] 105 % of control | [2] 104 % of control | [8] 94 % of control

CCOC(C#CC(C)=O)OCC
inactive: dose: 60.0 mg/kg/injection, schedule: Q01DX005 (ip), vehicle: saline 106 % of control | dose: 120.0 mg/kg/injection, schedule: Q01DX005 (ip), vehicle: saline 103 % of control | dose: 240.0 mg/kg/injection, schedule: Q01DX005 (ip), vehicle: saline 103 % of control

CS(=O)(=O)O/C=C1\C(=O)OC2CCCCC12 (configuration not stated)
inactive: dose: 18.8 mg/kg/injection, schedule: Q01DX009 (ip), vehicle: distilled water + Tween-80 108 % of control | dose: 37.5 mg/kg/injection, schedule: Q01DX009 (ip), vehicle: distilled water + Tween-80 107 % of control and 116 % of control | dose: 75.0 mg/kg/injection, schedule: Q01DX009 (ip), vehicle: distilled water + Tween-80 116 % of control and 118 % of control | dose: 150.0 mg/kg/injection, schedule: Q01DX009 (ip), vehicle: distilled water + Tween-80 120 % of control

CCCN1C(=O)C(C)N(S(=O)(=O)c2ccc(-n3nc(C)cc3C)cc2)C1=S (configuration not stated)
inactive: [9] 94 % of control | [10] 102 % of control | [11] 100 % of control
